Reference: patent US11332452B2, “Pesticidal compositions and methods” (priority 2019, dated 2022)

What was measured:
Type in all cases: in vivo
[1] = system: Cabbage Looper (Trichloplusia Ni, TRIPNI); assay: Insecticidal test for cabbage looper (CL), 128-well diet tray assay; settings: Trichoplusia ni, 168 h, read-out: CL % Control (or Mortality) rating
Experimental: Insecticidal Test for Cabbage Looper (Trichloplusia Ni, TRIPNI) (“CL”)
(§1) Bioassays on cabbage looper (CL; Trichloplusia ni: Lepidoptera) are conducted using a 128-well diet tray assay. One to five second instar CL larvae are placed in each well (3 mL) of the diet tray that had been previously filled with 1 mL of artificial diet to which 50 μg/cm^2 of the test compound (dissolved in 50 μL of 90:10 acetone-water mixture) had been applied (to each of eight wells) and then allowed to dry. Trays are covered with a clear self-adhesive cover, vented to allow gas exchange, and held at 25° C., 14:10 light-dark for five to seven days. Percent mortality is recorded for the larvae in each well; activity in the eight wells is then averaged.

[2] = system: Yellow Fever Mosquito (Aedes aegypti, AEDSAE); assay: Insecticidal test for yellow fever mosquito (YFM), 96-well plate larval assay; settings: from 4000 ppm DMSO master solution, diluted; about 1 day-old larvae; room temperature; scored after 3 days
Experimental: Insecticidal Test for Yellow Fever Mosquito (Aedes aegypti, AEDSAE) (“YFM”)
Master plates containing 400 μg of a molecule dissolved in 100 μL of dimethyl sulfoxide (DMSO) (equivalent to a 4000 ppm solution) are used. A master plate of assembled molecules contains 15 μL per well. To this plate, 135 μL of a 90:10 water/acetone mixture is added to each well. A robot (Biomek® NXP Laboratory Automation Workstation) is programmed to dispense 15 μL aspirations from the master plate into an empty 96-well shallow plate (“daughter” plate). There are 6 reps (“daughter” plates) created per master. The created “daughter” plates are then immediately infested with YFM larvae.
The day before plates are to be treated, mosquito eggs are placed in Millipore water containing liver powder to begin hatching (4 g. into 400 mL). After the “daughter” plates are created using the robot, they are infested with 220 μL of the liver powder/larval mosquito mixture (about 1 day-old larvae). After plates are infested with mosquito larvae, a non-evaporative lid is used to cover the plate to reduce drying. Plates are held at room temperature for 3 days prior to grading. After 3 days, each well is observed and scored based on mortality.

[3] = system: Beet Armyworm (Spodoptera exigua, LAPHEG); assay: Insecticidal test for beet armyworm (BAW), 128-well diet tray assay; settings: 168 h, 50 μg/cm^2 of test compound on artificial diet, second instar larvae, 25° C., five to seven days, average of eight wells, read-out: BAW % Control (or Mortality) rating
Experimental: Insecticidal Test for Beet Armyworm (Spodoptera exigua, LAPHEG) (“BAW”)
as §1, with “beet armyworm (BAW; Spodoptera exigua:” for “cabbage looper (CL; Trichloplusia ni:”, “BAW” for “CL”

In the case of `CCc1cccc(C)c1N1C(=O)CS/C1=N\C(=O)NCCc1ccc(NC(=O)Nc2ccc(C(F)(F)F)cc2)cc1` [Compound A11, (Z)-1-(4-(2-(3-(3-(2-Ethyl-6-methylphenyl)-4-oxothiazolidin-2-ylidene)ureido)ethyl)phenyl)-3-(4-(trifluoromethyl)phenyl)urea], the mortality at 50 µg/cm2 [1] is reported as 50 to 100%, the “YFM % Control (or Mortality) rating” value [2] is reported as “A (80-100)” and the mortality at 50 µg/cm2 [3] is reported as 50 to 100%.
`CCc1cccc(C)c1N1C(=O)CS/C1=N\C(=O)NC(C)Cc1ccc(NC(=O)Nc2ccc(OC(F)(F)F)cc2)cc1` (stereo not drawn) [Compound A40, (Z)-1-(4-(2-(3-(3-(2-Ethyl-6-methylphenyl)-4-oxothiazolidin-2-ylidene)ureido)propyl)phenyl)-3-(4-(trifluoromethoxy)phenyl)urea] was tested, and the mortality at 50 µg/cm2 [1] was 50 to 100%, the “YFM % Control (or Mortality) rating” value [2] was “A (80-100)” and the mortality at 50 µg/cm2 [3] was 50 to 100%.
`Cc1ccc(C(C)C)c(N2C(=O)CS/C2=N\C(=O)Nc2ccc(NS(=O)(=O)c3ccc(OC(F)(F)F)cc3)cc2)c1` [Compound A51, (Z)—N-(4-(3-(3-(2-isopropyl-5-methylphenyl)-4-oxothiazolidin-2-ylidene)ureido)phenyl)-4-(trifluoromethoxy)benzenesulfonamide] was tested, and the mortality at 50 µg/cm2 [1] was 50 to 100%, the “YFM % Control (or Mortality) rating” value [2] was “B (More than 0-Less than 80)” and the mortality at 50 µg/cm2 [3] was 0%.
For `Cc1ccc(C(C)C)c(N2C(=O)CS/C2=N\C(=O)Nc2ccc(NC(=O)Nc3ccc(OC(F)(F)F)cc3)cc2)c1` [Compound A7, (Z)-1-(3-(2-isopropyl-5-methylphenyl)-4-oxothiazolidin-2-ylidene)-3-(4-(3-(4-(trifluoromethoxy)phenyl)ureido)phenyl)urea], the mortality at 50 µg/cm2 [1] was 50 to 100%, the “YFM % Control (or Mortality) rating” value [2] was “A (80-100)” and the mortality at 50 µg/cm2 [3] was 50 to 100%.
For `Cc1ccc(C(C)C)c(N2C(=O)CS/C2=N\C(=O)NC(C)Cc2ccc(NC(=O)Nc3ccc(OC(F)(F)F)cc3)cc2)c1` (stereo not drawn) [Compound A26, (Z)-1-(3-(2-Isopropyl-5-methylphenyl)-4-oxothiazolidin-2-ylidene)-3-(1-(4-(3-(4-(trifluoromethoxy)phenyl)ureido)phenyl)propan-2-yl)urea], the mortality at 50 µg/cm2 [1] was 50 to 100%, the “YFM % Control (or Mortality) rating” value [2] was “A (80-100)” and the mortality at 50 µg/cm2 [3] was 50 to 100%.
In the case of `Cc1ccc(C(C)C)c(N2C(=O)CS/C2=N\C(=O)Nc2ccc(CNC(=O)Nc3ccc(OC(F)(F)F)cc3)cc2)c1` [Compound A43, (Z)-1-(4-(3-(3-(2-isopropyl-5-methylphenyl)-4-oxothiazolidin-2-ylidene)ureido)benzyl)-3-(4-(trifluoromethoxy)phenyl)urea], the mortality at 50 µg/cm2 [1] is reported as 50 to 100%, the “YFM % Control (or Mortality) rating” value [2] is reported as “A (80-100)” and the mortality at 50 µg/cm2 [3] is reported as 50 to 100%.
For `Cc1ccc(OCC(F)(F)F)c(N2C(=O)CS/C2=N\C(=O)NC(C)Cc2ccc(NC(=O)Nc3ccc(OC(F)(F)F)cc3)cc2)c1` (stereo not drawn) [Compound A38, (Z)-1-(4-(2-(3-(3-(5-Methyl-2-(2,2,2-trifluoroethoxy)phenyl)-4-oxothiazolidin-2-ylidene)ureido)propyl)phenyl)-3-(4-(trifluoromethoxy)phenyl)urea], the mortality at 50 µg/cm2 [1] was 50 to 100%, the “YFM % Control (or Mortality) rating” value [2] was “B (More than 0-Less than 80)” and the mortality at 50 µg/cm2 [3] was 50 to 100%.
In the case of `Cc1ccc(C(C)C)c(N2C(=O)CS/C2=N\C(=O)NCCc2ccc(NCC(=O)c3ccc(OC(F)(F)F)cc3)cc2)c1` [Compound A1, (Z)-1-(3-(2-isopropyl-5-methylphenyl)-4-oxothiazolidin-2-ylidene)-3-(4-((2-oxo-2-(4-(trifluoromethoxy)phenyl)ethyl)amino)phenethyl)urea], the mortality at 50 µg/cm2 [1] is reported as 50 to 100%, the “YFM % Control (or Mortality) rating” value [2] is reported as “A (80-100)” and the mortality at 50 µg/cm2 [3] is reported as 50 to 100%.
In the case of `CC(C)c1ccccc1N1C(=O)CS/C1=N\C(=O)NCCc1ccc(NC(=O)Nc2ccc(OC(F)(F)F)cc2)cc1` [Compound A16, (Z)-1-(4-(2-(3-(3-(2-Isopropylphenyl)-4-oxothiazolidin-2-ylidene)ureido)ethyl)phenyl)-3-(4-(trifluoromethoxy)phenyl)urea], the mortality at 50 µg/cm2 [1] is reported as 50 to 100%, the “YFM % Control (or Mortality) rating” value [2] is reported as “A (80-100)” and the mortality at 50 µg/cm2 [3] is reported as 50 to 100%.
For `Cc1ccc(C(C)C)c(N2C(=O)CS/C2=N\C(=O)NCCc2ccc(NC(=O)Nc3ccc(OC(F)(F)F)cc3)cc2)c1` [Compound A8, (Z)-1-(3-(2-isopropyl-5-methylphenyl)-4-oxothiazolidin-2-ylidene)-3-(4-(3-(4-(trifluoromethoxy)phenyl)ureido)phenethyl)urea], the mortality at 50 µg/cm2 [1] was 50 to 100%, the “YFM % Control (or Mortality) rating” value [2] was “A (80-100)” and the mortality at 50 µg/cm2 [3] was 50 to 100%.
For `Cc1ccc(OCC(F)(F)F)c(N2C(=O)CS/C2=N\C(=O)Nc2ccc(C(=O)NNc3ccc(OC(F)(F)F)cc3)cc2)c1` [Compound A3, (Z)-1-(3-(5-methyl-2-(2,2,2-trifluoroethoxy)phenyl)-4-oxothiazolidin-2-ylidene)-3-(4-(2-(4-(trifluoromethoxy)phenyl)hydrazine-1-carbonyl)phenyl)urea], the mortality at 50 µg/cm2 [1] was 50 to 100%, the “YFM % Control (or Mortality) rating” value [2] was “D (No activity noticed in this bioassay)” and the mortality at 50 µg/cm2 [3] was 50 to 100%.
`CC(C)c1ccccc1N1C(=O)CS/C1=N\C(=O)Nc1ccc(N/N=C/c2ccc(OC(F)(F)F)cc2)cc1` [Compound A54, 1-((Z)-3-(2-isopropylphenyl)-4-oxothiazolidin-2-ylidene)-3-(4-(2-((E)-4-(trifluoromethoxy)benzylidene)hydrazinyl)phenyl)urea] was tested, and the mortality at 50 µg/cm2 [1] was 50 to 100%, the “YFM % Control (or Mortality) rating” value [2] was “A (80-100)” and the mortality at 50 µg/cm2 [3] was 50 to 100%.
`CCC(C)Oc1ccc(C)cc1N1C(=O)CS/C1=N\C(=O)NC(C)Cc1ccc(NC(=O)Nc2ccc(OC(F)(F)F)cc2)cc1` (stereo not drawn) [Compound A39, (Z)-1-(4-(2-(3-(3-(2-(sec-Butoxy)-5-methylphenyl)-4-oxothiazolidin-2-ylidene)ureido)propyl)phenyl)-3-(4-(trifluoromethoxy)phenyl)urea] was tested, and the mortality at 50 µg/cm2 [1] was 50 to 100%, the “YFM % Control (or Mortality) rating” value [2] was “D (No activity noticed in this bioassay)” and the mortality at 50 µg/cm2 [3] was 50 to 100%.
With `COc1ccc(N2C(=O)CS/C2=N\C(=O)NC(C)Cc2ccc(NC(=O)Nc3ccc(C(F)(F)F)cc3)cc2)c(C)c1` (stereo not drawn) [Compound A31, (Z)-1-(4-(2-(3-(3-(4-Methoxy-2-methylphenyl)-4-oxothiazolidin-2-ylidene)ureido)propyl)phenyl)-3-(4-(trifluoromethyl)phenyl)urea] the mortality at 50 µg/cm2 [1] was 50 to 100%, the “YFM % Control (or Mortality) rating” value [2] was “A (80-100)” and the mortality at 50 µg/cm2 [3] was 0 to 50%.
`CC(Cc1ccc(NC(=O)Nc2ccc(OC(F)(F)F)cc2)cc1)NC(=O)/N=C1\SCC(=O)N1c1ccccc1C(C)C` (stereo not drawn) [Compound A34, (Z)-1-(4-(2-(3-(3-(2-Isopropylphenyl)-4-oxothiazolidin-2-ylidene)ureido)propyl)phenyl)-3-(4-(trifluoromethoxy)phenyl)urea] was tested, and the mortality at 50 µg/cm2 [1] was 50 to 100%, the “YFM % Control (or Mortality) rating” value [2] was “A (80-100)” and the mortality at 50 µg/cm2 [3] was 50 to 100%.
For `Cc1ccc(C(C)C)c(N2C(=O)CS/C2=N\C(=O)NCCc2ccc(NC(=O)Oc3ccc(OC(F)(F)F)cc3)cc2)c1` [Compound A53, 4-(trifluoromethoxy)phenyl (Z)-(4-(2-(3-(3-(2-isopropyl-5-methylphenyl)-4-oxothiazolidin-2-ylidene)ureido)ethyl)phenyl)carbamate], the mortality at 50 µg/cm2 [1] was 50 to 100%, the “YFM % Control (or Mortality) rating” value [2] was “A (80-100)” and the mortality at 50 µg/cm2 [3] was 50 to 100%.
In the case of `CC(Cc1ccc(NC(=O)Nc2ccc(C(F)(F)F)cc2)cc1)NC(=O)/N=C1\SCC(=O)N1c1ccccc1C(C)C` (stereo not drawn) [Compound A28, (Z)-1-(4-(2-(3-(3-(2-Isopropylphenyl)-4-oxothiazolidin-2-ylidene)ureido)propyl)phenyl)-3-(4-(trifluoromethyl)phenyl)urea], the mortality at 50 µg/cm2 [1] is reported as 50 to 100%, the “YFM % Control (or Mortality) rating” value [2] is reported as “A (80-100)” and the mortality at 50 µg/cm2 [3] is reported as 50 to 100%.
With `CCCc1ccc(OC)cc1N1C(=O)CS/C1=N\C(=O)NCCc1ccc(NC(=O)Nc2ccc(OC(F)(F)F)cc2)cc1` [Compound A18, (Z)-1-(4-(2-(3-(3-(5-Methoxy-2-propylphenyl)-4-oxothiazolidin-2-ylidene)ureido)ethyl)phenyl)-3-(4-(trifluoromethoxy)phenyl)urea] the mortality at 50 µg/cm2 [1] was 50 to 100%, the “YFM % Control (or Mortality) rating” value [2] was “B (More than 0-Less than 80)” and the mortality at 50 µg/cm2 [3] was 50 to 100%.
